In patent US20250186558A1, “FORMULATIONS COMPRISING ACID-NEUTRALIZING POLYMER FOR ORAL ADMINISTRATION OF ACTIVE AGENTS” (Entera Bio Ltd., priority 2022, published 2025):
Values belong to the compound of their own block, whether it stands above or below them.

Legend:
[1] = pH upon addition of test substance to 0.1 M HCl solution (pH 1.2), pH meter; format: physicochemical
Description: The solution pH was determined using an MP-103 pH-meter (MRC, Israel) equipped with ELC-10-00 electrode (MRC, Israel) or with a thin electrode HI1083 (HANNA instruments Inc.), shortly after dissolution and up to 26 hours later in order to ensure that the pH remained stable. The highest pH value obtained during the experimental time period was recorded in order to compare the acid-neutralizing capacity of each substance.
SNAC and the basic polymers sodium alginate, sodium carboxymethylcellulose in non-crosslinked (Na-CMC) and crosslinked (croscarmellose sodium, CCS) forms, and sodium starch glycolate (SSG) were dissolved in various volumes of 0.1 M HCl solution (pH 1.2) at concentrations of 1, 2, 4, 10, 20, 50, 100 and 150 mg/ml, and the solution pH was determined using an MP-103 pH-meter (MRC, Israel) equipped with ELC-10-00 electrode (MRC, Israel), as described in the Materials and Methods section hereinabove.
In order to obtain a beneficial rise in pH with a reduced loss of the active form of the absorption enhancer, the effect of various concentrations of different polymers containing carboxylate groups (sodium alginate, sodium starch glycolate, sodium carboxymethylcellulose, and croscarmellose sodium) on pH upon addition to a 0.1 M HCl solution (pH 1.2) was also evaluated. FIG. 3A presents pH values determined using an MP-103 pH-meter (MRC, Israel) equipped with ELC-10-00 electrode (MRC, Israel) and FIG. 3B presents pH values determined using an MP-103 pH-meter (MRC, Israel) equipped with a thin electrode HI1083 (HANNA instruments Inc.).

[2] = test system: pepsin; assay: Effect of pH on proteolysis of hPTH(1-34) by pepsin; format: in vitro ADME; details: 37° C., 3 minutes, media pH 2, 4, 5, 6, 7
Description: The effect of pH on peptide proteolysis by pepsin was determined by incubating 13.5 µg/ml human parathyroid hormone (1-34) (hPTH(1-34)) with 150 µg/ml pepsin, at various pH values, and determining the percentage of hPTH(1-34) which remained. The amount of hPTH(1-34) remaining upon addition to 150 µg/ml pepsin at 37° C. was determined in media with different pH values, followed by immediate (10 second) vortex and centrifugation for 3 minutes at 4° C., 4000 RCF. The following media were used: simulated gastric fluid (pH 2), prepared from 0.01 M HCl and NaCl; phthalate buffer (pH 4 or 5); and phosphate buffer (pH 6 or 7).

[3] = Teduglutide plasma concentration after oral mini-tablets with SNAC and SSG in rats; format: in vivo, male Sprague-Dawley (SD) rats; details: mini-tablets: 0.7 mg teduglutide (2.34 mg/Kg), 15 mg SNAC, 5.33 mg SSG; male SD rats, n=7
Description: A formulation was prepared with 0.7 mg teduglutide (2.34 mg/Kg), 15 mg SNAC, 0.2 mg stearate and 5.33 mg SSG. […] Afterwards, mini-tablets were prepared from the mixes using a 2 mm punch and die set at 1 ton/cm^2.
The study was conducted in 7 male Sprague-Dawley (SD) rats weighing about 299 grams (290-320 grams). Animals were deprived of food 12-15 hours prior to administration. Water supply was removed one hour before administration and returned one hour post-administration. The mini-tablets were administered by a flexible intragastric gavage with a tip adapted for solid dosage forms administration, without the aid of water.

pH 5 minutes after dissolution ([1]; 10 mg/ml SNAC added to HCl solution (pH 1.2)): about 1.5 | pH 5 minutes after dissolution ([1]; 20 mg/ml SNAC added to HCl solution (pH 1.2)): 6.5 | pH 5 minutes after dissolution ([1]; 100 mg/ml SNAC added to HCl solution (pH 1.2)): about 7.5
Compound: O=C(O)CCCCCCCNC(=O)c1ccccc1O [SNAC, sodium 8-N-(2-hydroxybenzoyl)aminocaprylate]

Compound: CC[C@H](C)[C@H](NC(=O)[C@H](CCC(=O)O)NC(=O)[C@H](CO)NC(=O)[C@@H](NC(=O)[C@@H](N)CO)C(C)C)C(=O)N[C@@H](CCC(N)=O)C(=O)N[C@@H](CC(C)C)C(=O)N[C@@H](CCSC)C(=O)N[C@@H](Cc1cnc[nH]1)C(=O)N[C@@H](CC(N)=O)C(=O)N[C@@H](CC(C)C)C(=O)NCC(=O)N[C@@H](CCCCN)C(=O)N[C@@H](Cc1cnc[nH]1)C(=O)N[C@@H](CC(C)C)C(=O)N[C@@H](CC(N)=O)C(=O)N[C@@H](CO)C(=O)N[C@@H](CCSC)C(=O)N[C@@H](CCC(=O)O)C(=O)N[C@@H](CCCN=C(N)N)C(=O)N[C@H](C(=O)N[C@@H](CCC(=O)O)C(=O)N[C@@H](Cc1c[nH]c2ccccc12)C(=O)N[C@@H](CC(C)C)C(=O)N[C@@H](CCCN=C(N)N)C(=O)N[C@@H](CCCCN)C(=O)N[C@@H](CCCCN)C(=O)N[C@@H](CC(C)C)C(=O)N[C@@H](CCC(N)=O)C(=O)N[C@@H](CC(=O)O)C(=O)N[C@H](C(=O)N[C@@H](Cc1cnc[nH]1)C(=O)N[C@@H](CC(N)=O)C(=O)N[C@@H](Cc1ccccc1)C(=O)O)C(C)C)C(C)C [hPTH(1-34)]
proteolysis of hPTH(1-34) by pepsin as a function of pH [2]: inhibited when the pH increased to about pH 6 or higher

Compound: CC[C@H](C)[C@H](NC(=O)[C@H](Cc1ccccc1)NC(=O)[C@H](CC(=O)O)NC(=O)[C@H](CCCNC(=N)N)NC(=O)[C@H](C)NC(=O)[C@H](C)NC(=O)[C@H](CC(C)C)NC(=O)[C@H](CC(N)=O)NC(=O)[C@H](CC(=O)O)NC(=O)[C@H](CC(C)C)NC(=O)[C@@H](NC(=O)[C@@H](NC(=O)[C@H](CC(N)=O)NC(=O)[C@H](CCSC)NC(=O)[C@H](CCC(=O)O)NC(=O)[C@H](CC(=O)O)NC(=O)[C@H](CO)NC(=O)[C@H](Cc1ccccc1)NC(=O)[C@H](CO)NC(=O)CNC(=O)[C@H](CC(=O)O)NC(=O)CNC(=O)[C@@H](N)Cc1c[nH]cn1)[C@@H](C)O)[C@@H](C)CC)C(=O)N[C@@H](CC(N)=O)C(=O)N[C@@H](Cc1c[nH]c2ccccc12)C(=O)N[C@@H](CC(C)C)C(=O)N[C@H](C(=O)N[C@@H](CCC(N)=O)C(=O)N[C@H](C(=O)N[C@@H](CCCCN)C(=O)N[C@H](C(=O)N[C@H](C(=O)N[C@@H](CC(=O)O)C(=O)O)[C@@H](C)O)[C@@H](C)CC)[C@@H](C)O)[C@@H](C)CC [teduglutide]
teduglutide plasma concentrations as a function of time after oral administration [3]: enable oral delivery of teduglutide
